Laboratory results published in EP0365210A1, “Hydroxamic acid derivatives” (KYOWA HAKKO KOGYO CO., LTD., priority 1988, dated 1990).

These compounds were tested against T1, leucocyte 5-lipoxygenase (Rattus norvegicus, UniProt P12527) (assay: Inhibitory activity against leucocyte 5-lipoxygenase (5-HETE formation by HPLC, RBL-1 cells as enzyme source)). Conditions: rat basophilic leukemia cells (RBL-1) as source of 5-lipoxygenase; arachidonic acid substrate; 37°C; pH 7.4.
T1 construct: rat basophilic leukemia cells (RBL-1, ATCC No. CRL 1378) were used as the source of 5-lipoxygenase; host or cells: RBL-1 rat basophilic leukemia cells
T1 sequence (P12527 1-673): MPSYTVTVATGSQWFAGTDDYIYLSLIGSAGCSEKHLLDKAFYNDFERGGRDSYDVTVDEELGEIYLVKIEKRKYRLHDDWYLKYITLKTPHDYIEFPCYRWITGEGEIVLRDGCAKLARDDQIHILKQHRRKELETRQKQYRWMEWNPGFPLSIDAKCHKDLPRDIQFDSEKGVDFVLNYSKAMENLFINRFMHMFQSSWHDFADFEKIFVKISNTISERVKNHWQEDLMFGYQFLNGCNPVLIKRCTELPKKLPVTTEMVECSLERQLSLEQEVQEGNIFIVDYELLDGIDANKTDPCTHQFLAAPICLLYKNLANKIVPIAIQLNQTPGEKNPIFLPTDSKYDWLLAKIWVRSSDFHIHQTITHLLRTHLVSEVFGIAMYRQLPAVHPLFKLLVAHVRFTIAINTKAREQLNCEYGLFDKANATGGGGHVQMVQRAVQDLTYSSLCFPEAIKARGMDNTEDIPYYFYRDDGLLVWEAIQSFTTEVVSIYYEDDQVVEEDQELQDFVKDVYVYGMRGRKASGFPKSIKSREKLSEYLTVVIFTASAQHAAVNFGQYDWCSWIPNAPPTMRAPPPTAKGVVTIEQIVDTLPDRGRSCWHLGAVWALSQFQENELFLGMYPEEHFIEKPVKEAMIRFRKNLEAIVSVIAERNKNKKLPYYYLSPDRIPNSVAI
Type: biochemical
Description: a) Method for determining the inhibitory activity against leucocyte 5-lipoxygenase:
Lipoxygenase activity was determined by a modification of the method of B.A. Jakschik et al. [Biochem. Biophys. Res. Commun., 95, 103 (1980)]. That is, rat basophilic leukemia cells (RBL-1, ATCC No. CRL 1378) were used as the source of 5-lipoxygenase. The cells were contacted with a test compound in 60 µl of 0.17 M Trishydrochloride buffer (pH 7.4) containing […] calcium chloride, 3.3 mM adenosine triphosphate and 1 mM glutathione at 37°C for 5 minutes. Then,-50 µl of 60 µM arachidonic acid was added to the reaction mixture and the mixture was allowed to stand at 37° C for 5 minutes. To the mixture were added 200 µl of methanol and 13-hydroxylinoleic acid as the internal standard, followed by thorough shaking. The mixture was allowed to stand at -20 C for 30 minutes and then centrifuged at 12000 r.p.m. for 10 minutes. After the supernatant was evaporated to dryness in a stream of nitrogen, 200 µl of 75% aqueous methanol was added to the residue. The resulting solution (100 µl) was subjected to high performance liquid chromatography to quantitatively determine 5-HETE (5-hydroxyeicosatetraenoic acid). The absorption at 234 nm was measured with a UV absorption monitor and the amount of 5-HETE produced was determined from the peak area corrected by the peak of the internal standard. The test was carried out using the test compound at various concentrations and the concentration that inhibits 50% enzyme activity was determined as the inhibitory activity.

IC50 [nM] | SMILES
20 | CCCCCCCCCCCC(=O)N(O)CCCCCCCN1C(=O)CCC1=O [Compound 1]
20 | CCCCCCCCCCCN(O)C(=O)CCCCCN1C(=O)CCC1=O [Compound 2]
20 | CCCCCCCCCCCC(=O)N(O)CCCN1C(=O)CCC1=O [Compound 3]
38 | CCCCCCCCCCCN(O)C(=O)CCC(=O)OC [Compound 7]
44 | CCCCCCCCCCCN(O)C(=O)CCC [Compound 11]
34 | CCCCCCCCCCCN(O)C(C)=O [Compound 10]
36 | CCCCCCCCCCCC(=O)N(O)CCCCCN1C(=O)CCCC1=O [Compound 5]
25 | CCCCCCCCCCCC(=O)N(O)CCCCCN1CCCC1=O [Compound 6]
40 | CCCCCCCCCCCC(=O)N(O)CCCCCN1C(=O)c2ccccc2C1=O [Compound 4]
300 | CCCCCCCCCCCN(O)C(=O)c1ccccc1 [Compound 12]
